Results on five molecules are retold here after ChEMBL document CHEMBL1142886, “Substrate specificity analysis and inhibitor design of homoisocitrate dehydrogenase” (Bioorg Med Chem, 2007).

Experiment [1] is described as follows: Inhibition of Deinococcus radiodurans homoisocitrate dehydrogenase.
Experiment [2] concerns the target Homoisocitrate dehydrogenase, mitochondrial (Saccharomyces cerevisiae S288c, UniProt P40495). Put plainly: Inhibition of Saccharomyces cerevisiae homoisocitrate dehydrogenase expressed in Escherichia coli Rosetta cells above 10 mM.

Molecules are shown by their SMILES.

Chain of Homoisocitrate dehydrogenase, mitochondrial (P40495 whole entry): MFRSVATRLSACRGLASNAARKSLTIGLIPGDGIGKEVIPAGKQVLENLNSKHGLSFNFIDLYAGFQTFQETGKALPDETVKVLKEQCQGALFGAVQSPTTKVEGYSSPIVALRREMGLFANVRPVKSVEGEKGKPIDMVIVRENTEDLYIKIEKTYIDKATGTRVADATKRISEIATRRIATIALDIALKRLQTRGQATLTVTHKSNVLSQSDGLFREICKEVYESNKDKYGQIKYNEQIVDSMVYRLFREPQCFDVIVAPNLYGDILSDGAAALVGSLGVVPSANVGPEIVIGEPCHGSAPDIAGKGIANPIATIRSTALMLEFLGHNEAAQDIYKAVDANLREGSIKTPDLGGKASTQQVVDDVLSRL

As a reminder, the Ki is the dissociation constant of the complex between target and ligand, obtained from inhibition or displacement. The molecule `C=C[C@H](C(=O)O)[C@@H](O)C(=O)O` registered a Ki in experiment [1] of 88 µM. Consider `O=C(O)/C(=C\CCO)[C@@H](O)C(=O)O`, for which the Ki in experiment [1] came out at 15300 µM; in experiment [2] it was 510 µM. `O=C(O)CC/C=C(/C(=O)O)[C@@H](O)C(=O)O`: the Ki in experiment [1] is 3100 µM; in experiment [2] it was 790 µM.

`O=C(O)CC/C=C(\C(=O)O)[C@@H](O)C(=O)O`: the Ki in experiment [1] was 260 µM; in experiment [2], 72 µM.

For the molecule `O=C(O)/C(=C/CCO)[C@@H](O)C(=O)O`, the Ki in experiment [1] was determined as 5200 µM; in experiment [2] it was 1400 µM.
